Experimental data taken from patent publication US20240002430A1, “METHOD FOR PRODUCING PROTEIN COMPOSITIONS” (HOFFMAN-LA ROCHE INC., priority 2020, published 2024).

Key:
[1] = general statement in the description, no test described; cited from earlier work
[2] = target: T1, lipase CalB2 (Moesziomyces antarcticus, UniProt P41365); test: Targeted LC-MS proteomics of lipase bound to bis-enol-ester functionalized magnetic beads; type: binding; settings: compound C coupled to azide modified polystyrene magnetic beads; CalB2 + Herceptin mixture, over night 40° C.; after extensive washing; vs non-functionalized beads
T1 sequence (P41365 26-342): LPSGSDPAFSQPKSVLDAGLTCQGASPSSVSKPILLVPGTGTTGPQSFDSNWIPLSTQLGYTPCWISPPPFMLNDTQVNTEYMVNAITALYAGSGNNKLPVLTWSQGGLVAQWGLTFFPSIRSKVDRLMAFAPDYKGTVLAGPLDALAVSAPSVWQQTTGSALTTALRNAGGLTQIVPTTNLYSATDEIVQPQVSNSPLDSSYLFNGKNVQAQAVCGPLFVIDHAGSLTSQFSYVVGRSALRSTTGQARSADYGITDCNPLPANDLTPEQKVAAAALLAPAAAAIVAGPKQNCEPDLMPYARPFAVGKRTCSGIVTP
Protocol: Test sample: Herceptin (mAb; 0.2 μg/μl in Na-Phosphate-Buffer) as control protein for the LC-MS based proteomics workflow was mixed with the lipase CalB2 (CalB2; […] in Na-Phosphate-Buffer) in a ca. 1:1 (mol/mol) ratio) as target. The above-mentioned samples were addressed with compound C (bis-enol-ester) covalently coupled to 60 μg azide modified magnetic particles (60 μl of a […] aqueous solution were prepared) (Polystyrene based azide beads; CLK-1036-1, Jena-Bioscience) which were made by click reaction and purification (see protocol experiment Example 1 and general procedure described for the Jena-Bioscience click protocol). […]
The targeted LC-MS analysis was performed using Water/Acetonitrile gradients with TFA (0.05% v(v) as buffer. The separation column was a PepSwift Monolithic Capillary Column, 200 μm×5 cm, P/N: 161409. As mass spectrometer, a Thermo LTQ FT system was used. Further experimental design for quantitative analyses followed general experimental targeted LC-MS procedures. The proteins bound to the beads were applied to the LC-MS system by injection of 1 μl of the digested sample on the analytical column. […]

**Q.** With `CCCCCCCCCCC[C@@H](C[C@@H]1OC(=O)[C@H]1CCCCCC)OC(=O)[C@H](CC(C)C)NC=O` [Orlistat] as the molecule, how does the solubility in water [1] read?
**A.** highly insoluble in water

**Q.** Which “binding of model lipase CalB2 to functionalized beads (LC-MS peptide peak intensities, FIG. 6)” value [2] does the source give for `C#CCCCC(=C/OC(=O)CCCCCCCCCCC)/C=C/OC(=O)CCCCCCCCCCC` [bis-enol ester] here?
**A.** binds to beads functionalized with bis-enol ester even when subjected to extensive washing steps
